Measured values: patent US8178658B2 (Dow AgroSciences, LLC, priority 2008, dated 2012)

Assays:
[1] = test system: beet armyworm (BAW; Spodoptera exigua: Lepidoptera); assay: 96-well microtiter plate-based high throughput (HTS) diet bioassay on beet armyworm (BAW HTS); assay type: in vivo; settings: for BAW HTS: BAW eggs, 12 μg test compound per well, mortality at 6 d post-treatment, mortality class
Outline: (§1)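 Spodoptera exigua eggs on artificial diet in 96-well plates, surface-treated with 12 μg compound in DMSO-acetone-water; dark, 29° C, mortality at 6 d, six replicates. 128-well trays: second-instar larvae on diet treated at 50 μg/cm^2, 25° C, 14:10 light-dark, six days, mortality averaged over eight wells.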

[2] = test system: beet armyworm (BAW; Spodoptera exigua: Lepidoptera); assay: 128-well diet tray assay on beet armyworm (BAW 50); assay type: in vivo
Outline: as §1

[3] = 96-well microtiter plate HTS diet assay
[4] = 128-well diet tray assay; 50 μg/cm^2 of test compound on diet; second instar BAW larvae; mortality class

Structure (SMILES)	BAW HTS ([1]; 96-well HTS diet assay)	BAW HTS [1, 3]	BAW 50 ug/cm2 [2, 4]	BAW HTS ([1]; 96-well HTS diet bioassay)	pest or weed control at 12 µg/well, 12 µg/well ([1]; Spodoptera exigua, 144 h, read-out: BAW HTS) [%]	pest or weed control at 50 µg/cm2, 50 µg/cm2 ([2]; Spodoptera exigua, 144 h, read-out: BAW 50 ug/cm2) [%]	BAW 50 ug/cm2 ([2]; 128-well diet tray assay, second instar BAW larvae, 50 μg/cm^2 of test compound on diet; mortality class)
CO[C@@H]1[C@@H](OC)[C@H](C)O[C@H](OC(=O)Nc2ccc(-c3cn(-c4ccc(OC(F)(F)F)cc4)cn3)cc2)[C@@H]1OC [Compound 174]	A (the compound was tested and at least 50 percent mortality was observed)	A (the compound was tested and at least 50 percent mortality was observed)	A (the compound was tested and at least 50 percent mortality was observed)				
CCCOC1C(OC)C(C)OC(ON=Cc2ccc(-c3ncn(-c4ccc(C(F)(F)C(F)(F)C(F)(F)F)cc4)n3)cc2)C1OC (stereo not shown) [Compound 110]		B (either (1) the compound was tested and less than 50 percent mortality was observed or (2) the compound was not tested)	A (the compound was tested and at least 50 percent mortality was observed)	B (either (1) the compound was tested and less than 50 percent mortality was observed or (2) the compound was not tested)			
CO[C@@H]1[C@@H](OC)[C@H](C)O[C@H](OC(=O)Nc2ccc(-n3cnc(-c4ccc(C(F)(F)F)cc4)n3)cc2Cl)[C@@H]1OC [Compound 190, {2-chloro-4-[3-(4-trifluoromethylphenyl)-[1,2,4]triazol-1-yl]-phenyl}-carbamic acid (2R,3R,4R,5S,6S)-3,4,5-trimethoxy-6-methyl-tetrahydropyran-2-yl ester]		A (the compound was tested and at least 50 percent mortality was observed)	A (the compound was tested and at least 50 percent mortality was observed)		> 50	> 50	
COc1ccc(-n2cnc(-c3ccc(C=NOC4OC(C)C(OC)C(OC)C4OC)cc3)c2)cc1 (stereo not shown) [Compound 44]		B (either (1) the compound was tested and less than 50 percent mortality was observed or (2) the compound was not tested)	A (the compound was tested and at least 50 percent mortality was observed)	B (either (1) the compound was tested and less than 50 percent mortality was observed or (2) the compound was not tested)			
CCOC1C(OC)C(C)OC(ON=Cc2ccc(-c3ncn(-c4ccc(C(F)(F)F)cc4Cl)n3)cc2)C1OC (stereo not shown) [Compound 115]		B (either (1) the compound was tested and less than 50 percent mortality was observed or (2) the compound was not tested)	A (the compound was tested and at least 50 percent mortality was observed)	B (either (1) the compound was tested and less than 50 percent mortality was observed or (2) the compound was not tested)			
CCCCOc1ccc(-c2cc(-c3ccc(C=NOC4OC(C)C(OC)C(OC)C4OC)cc3)no2)cc1 (stereo not shown) [Compound 61]		A (the compound was tested and at least 50 percent mortality was observed)	A (the compound was tested and at least 50 percent mortality was observed)	A (the compound was tested and at least 50 percent mortality was observed)			
CCCOC1C(OC)C(C)OC(ON=Cc2ccc(-c3ncn(-c4ccc(OC(F)(F)C(F)(F)F)cc4)n3)cc2)C1OC (stereo not shown) [Compound 106]		B (either (1) the compound was tested and less than 50 percent mortality was observed or (2) the compound was not tested)	A (the compound was tested and at least 50 percent mortality was observed)	B (either (1) the compound was tested and less than 50 percent mortality was observed or (2) the compound was not tested)			
COC1C(C)OC(ON=Cc2ccc(-c3cn(-c4ccc(C(C)C)cc4)cn3)cc2)C(OC)C1OC (stereo not shown) [Compound 46]		B (either (1) the compound was tested and less than 50 percent mortality was observed or (2) the compound was not tested)	A (the compound was tested and at least 50 percent mortality was observed)	B (either (1) the compound was tested and less than 50 percent mortality was observed or (2) the compound was not tested)			
CO[C@@H]1[C@@H](OC)[C@H](C)O[C@@H](OC(=O)Nc2ccc(-c3cc(C(F)(F)F)nc(-c4ccc(C(F)(F)F)cc4)n3)cc2)[C@@H]1OC [Compound 235]	A (the compound was tested and at least 50 percent mortality was observed)	A (the compound was tested and at least 50 percent mortality was observed)	B (either (1) the compound was tested and less than 50 percent mortality was observed or (2) the compound was not tested)				
CCOC1C(OC)C(C)OC(ON=Cc2cccc(-c3ncc(-c4ccc(OC(F)(F)F)cc4)cn3)c2)C1OC (stereo not shown) [Compound 146]	B (either (1) the compound was tested and less than 50 percent mortality was observed or (2) the compound was not tested)	B (either (1) the compound was tested and less than 50 percent mortality was observed or (2) the compound was not tested)	A (the compound was tested and at least 50 percent mortality was observed)				
CCO[C@@H]1[C@@H](OC)[C@H](C)O[C@@H](OC(=O)Nc2ccc(C3COC(c4ccc(OC(F)(F)F)cc4)=N3)cc2)[C@@H]1OC (stereo partly shown) [Compound 186]	B (either (1) the compound was tested and less than 50 percent mortality was observed or (2) the compound was not tested)	B (either (1) the compound was tested and less than 50 percent mortality was observed or (2) the compound was not tested)	A (the compound was tested and at least 50 percent mortality was observed)				
COc1ccc(-c2nc(-c3ccc(C=NOC4OC(C)C(OC)C(OC)C4OC)cc3)cs2)cc1 (stereo not shown) [Compound 62]		A (the compound was tested and at least 50 percent mortality was observed)	A (the compound was tested and at least 50 percent mortality was observed)	A (the compound was tested and at least 50 percent mortality was observed)			
COC1C(C)OC(ON=Cc2ccc(-n3ccc(-c4cccs4)n3)cc2)C(OC)C1OC (stereo not shown) [Compound 4]	B (either (1) the compound was tested and less than 50 percent mortality was observed or (2) the compound was not tested)			B (either (1) the compound was tested and less than 50 percent mortality was observed or (2) the compound was not tested)			B (either (1) the compound was tested and less than 50 percent mortality was observed or (2) the compound was not tested)
COC1C(C)OC(ON=Cc2ccc(-c3ncn(-c4ccc(Br)cc4)n3)cc2)C(OC)C1OC (stereo not shown) [Compound 102]		B (either (1) the compound was tested and less than 50 percent mortality was observed or (2) the compound was not tested)	B (either (1) the compound was tested and less than 50 percent mortality was observed or (2) the compound was not tested)	B (either (1) the compound was tested and less than 50 percent mortality was observed or (2) the compound was not tested)			
CCOC1C(OC)C(C)OC(ON=Cc2ccc(-c3ncn(-c4ccc(OC(F)(F)F)cc4)n3)cn2)C1OC (stereo not shown) [Compound 123]		B (either (1) the compound was tested and less than 50 percent mortality was observed or (2) the compound was not tested)	A (the compound was tested and at least 50 percent mortality was observed)	B (either (1) the compound was tested and less than 50 percent mortality was observed or (2) the compound was not tested)			
COC1C(C)OC(ON=Cc2ccc(C3=NN(c4ccc(OC(F)(F)F)cc4)CC3)cc2)C(OC)C1OC (stereo not shown) [Compound 15]		B (either (1) the compound was tested and less than 50 percent mortality was observed or (2) the compound was not tested)	A (the compound was tested and at least 50 percent mortality was observed)	B (either (1) the compound was tested and less than 50 percent mortality was observed or (2) the compound was not tested)			
CCOC1C(OC)C(C)OC(ON=Cc2cccc(-c3ncc(-c4ccccc4OC(F)(F)F)cn3)c2)C1OC (stereo not shown) [Compound 147]	B (either (1) the compound was tested and less than 50 percent mortality was observed or (2) the compound was not tested)	B (either (1) the compound was tested and less than 50 percent mortality was observed or (2) the compound was not tested)	B (either (1) the compound was tested and less than 50 percent mortality was observed or (2) the compound was not tested)				
CO[C@@H]1[C@@H](OC)[C@H](C)O[C@@H](OC(=O)Nc2ccc(-c3ncn(-c4ccc(OC(F)(F)C(F)(F)F)cc4)n3)cc2)[C@@H]1OC [Compound 200]	A (the compound was tested and at least 50 percent mortality was observed)	A (the compound was tested and at least 50 percent mortality was observed)	A (the compound was tested and at least 50 percent mortality was observed)				
CCOc1ccc(-n2cnc(-c3ccc(C=NOC4OC(C)C(OC)C(OCC)C4OC)cc3)n2)cc1 (stereo not shown) [Compound 125]		B (either (1) the compound was tested and less than 50 percent mortality was observed or (2) the compound was not tested)	A (the compound was tested and at least 50 percent mortality was observed)	B (either (1) the compound was tested and less than 50 percent mortality was observed or (2) the compound was not tested)			
CCOC1C(OC)C(C)OC(ON=Cc2ccc(-c3ncn(-c4ccc(Cl)nn4)n3)cc2)C1OC (stereo not shown) [Compound 117]		B (either (1) the compound was tested and less than 50 percent mortality was observed or (2) the compound was not tested)	B (either (1) the compound was tested and less than 50 percent mortality was observed or (2) the compound was not tested)	B (either (1) the compound was tested and less than 50 percent mortality was observed or (2) the compound was not tested)			
